From patent US8044037B2, “Modified phosphocalcic compound, injectable composition containing same” (Centre National de la Recherche Scientifique, priority 2002, dated 2011)

Test system: rabbit osteoclast model (osteoclast resorption)
Experiment: Supernatants of incubated CDA samples tested in rabbit osteoclast model (FIG. 6)
Type: cell-based
Conditions: supernatant after 96 hours at 37° C. (200 mg in 5 ml culture medium) or 10^−6 M zoledronate solution; pure, diluted 10-, 100- and 1000-fold
Procedure: Several samples of CDA (200 mg) modified by adding zoledronate in accordance with the process of example 1 and several samples of unmodified CDA were incubated in 5 ml of culture medium at 37° C. After incubation for 96 hours, the various supernatants were collected and used pure, diluted 10-fold, 100-fold and 1000-fold in a rabbit osteoclast model.
The results are represented in FIG. 6, in which the percentage of resorption R is indicated on the y-axis, the conditions being indicated on the x-axis. Among the conditions: • “vehicle” means the culture medium alone • “pure CDA” means the supernatant derived from the incubation of pure CDA in the culture medium; “CDA 1/10”, “CDA 1/100” and “CDA 1/1000” mean, respectively, the solution referred to above and diluted to 1/10, 1/100 and 1/1000 • “pure zo” means a 10^−6 M solution of zoledronate in the culture medium, “zo 1/10”, “zo 1/100” and “zo 1/1000” mean, respectively, the solution referred to above and diluted to 1/10, 1/100 and 1/1000 • “pure CDAzo” means the supernatant derived from the incubation of zoledronate-containing CDA in the culture medium, and “CDAzo 1/10”, “CDAzo 1/100” and “CDAzo 1/1000” mean, respectively, the solution referred to above and diluted to 1/10, 1/100 and 1/1000.

O=P(O)(O)C(O)(Cn1ccnc1)P(=O)(O)O [zoledronate]
effect on osteoclast resorption (percentage of resorption R, FIG. 6): inhibits resorption according to a dose/effect relationship
